Results published in publication PMC10997566, “Kinetic profiling of novel spirobenzo-oxazinepiperidinone derivatives as equilibrative nucleoside transporter 1 inhibitors” (Purinergic Signalling, 2023).

Legend:
hENT1 [1] = target: T1, hENT1 (Homo sapiens, UniProt Q99808); assay: [3H]NBTI competition association assay (Motulsky and Mahan); conditions: 10 °C; for RT (residence time): RT = 1/koff; for koff / kon: human erythrocyte membranes, competitor at IC50 concentration, mean ± SEM
T1 sequence (Q99808 1-456): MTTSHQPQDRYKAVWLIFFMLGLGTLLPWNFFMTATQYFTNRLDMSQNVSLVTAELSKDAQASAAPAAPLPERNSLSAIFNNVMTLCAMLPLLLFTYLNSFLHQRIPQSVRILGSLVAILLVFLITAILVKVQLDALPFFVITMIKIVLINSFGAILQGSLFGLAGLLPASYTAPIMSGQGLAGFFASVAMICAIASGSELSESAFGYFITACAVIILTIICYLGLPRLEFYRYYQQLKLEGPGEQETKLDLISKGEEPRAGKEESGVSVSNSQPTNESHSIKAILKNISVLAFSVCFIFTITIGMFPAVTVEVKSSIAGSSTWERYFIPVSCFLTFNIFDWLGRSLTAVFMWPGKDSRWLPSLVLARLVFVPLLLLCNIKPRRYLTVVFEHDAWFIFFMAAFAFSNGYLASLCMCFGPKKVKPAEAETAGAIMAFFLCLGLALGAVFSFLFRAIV

hENT1 [2] = target: T1, hENT1; assay: Washout assay with [3H]NBTI binding after four wash cycles; parameters: For our experiments, we used human erythrocytes as a source of hENT1; from tissue; host or cells: human erythrocytes (membrane preparation); conditions: 10 °C; for inhibitor washed away (recovery of [3H]NBTI binding): 1 h pre-incubation at 10 × IC50, four wash and centrifugation cycles, erythrocyte membranes
Method: Centrifugation at 13,200 rpm (16,100 × g) at 4 °C for 5 min separated pellet and supernatant, with the latter containing the unbound ligand being removed. Pellets were resuspended in 1 mL of assay buffer, and samples were incubated for 10 min at 10 °C. In total, four centrifugation-washing cycles were performed. […] Rapid filtration through GF/C filters using a Brandel harvester (Brandel, Gaithersburg, MD) terminated the experiment. Filters were washed three times using ice-cold wash buffer and the samples were counted by scintillation spectrometry using a Tri-carb 2900 TR liquid scintillation counter (Perkin Elmer, Boston, MA).
A washout assay was used to validate the findings in the competition association assays (Fig. 2C). […] The unwashed condition was also similarly assessed, but no wash and centrifugation cycle occurred before the determination of radioligand binding. The results of both washed and unwashed samples were compared to the control condition without any competitor (100% washed and unwashed radioligand binding, respectively).

hENT1 [3] = target: T1, hENT1; parameters: For our experiments, we used human erythrocytes as a source of hENT1; from tissue; host or cells: human erythrocytes (membrane preparation); method as in PMID 31830468; conditions: earlier study, same experimental protocol; cited from earlier work
hENT1 [4] = target: T1, hENT1; assay: biochemical
hENT1 [5] = target: T1, hENT1; assay: [3H]NBTI radioligand displacement assay; conditions: Ki relative to compound 1

Structure (SMILES)	RT (residence time) (hENT1 [1]) [min]	koff (hENT1 [1]) [s⁻¹]	kon (hENT1 [1]) [M⁻¹ s⁻¹]	inhibitor washed away (recovery of [3H]NBTI binding) (hENT1 [2])	RT (hENT1 [3]) [min]	Ki (hENT1 [4]) [nM]	inhibitor still bound to the target (hENT1 [2]; after four extensive washing steps, 10 × IC50 pre-incubation)	increase in affinity compared to 1 (hENT1 [5])
CC(=O)NCCCNc1cc2c(cc1Cl)C(=O)NC1(CCN(CCNC(=O)c3c(Cl)cccc3Cl)CC1)O2 [Compound 9]	10 ± 0.9	0.0016 ± 0.00013	417000 ± 83000					
CC(=O)N1CCC(Nc2cc3c(cc2Cl)C(=O)NC2(CCN(CCNC(=O)c4c(Cl)cccc4Cl)CC2)O3)CC1 [Compound 18]	26 ± 6.5	0.000633 ± 0.00015	433000 ± 50000	approximately 60%				
CC(C)Oc1cc2c(cc1Cl)C(=O)NC1(CCN(CCNC(=O)c3c(Cl)cccc3Cl)CC1)O2 [Compound 21]	18 ± 3.6	0.000933 ± 0.000183	2.17e+06 ± 850000					
COc1cc(C(=O)OCCCN2CCCN(CCCOC(=O)c3cc(OC)c(OC)c(OC)c3)CC2)cc(OC)c1OC [dilazep]					44			
O=C1NC2(CCN(CCNC(=O)c3c(Cl)cccc3Cl)CC2)Oc2cc(O)c(Cl)cc21 [Compound 20]						1040		
CC(=O)N1CCC(Oc2cc3c(cc2Cl)C=CC2(CCN(CCNC(=O)c4c(Cl)cccc4Cl)CC2)O3)CC1 [Compound 28]	87 ± 8.7	0.000183 ± 1.7e-05	1.62e+06 ± 120000					
CN1CCC(Nc2cc3c(cc2Cl)C(=O)NC2(CCN(CCNC(=O)c4c(Cl)cccc4Cl)CC2)O3)CC1 [Compound 17]	1.9 ± 0.1	0.00892 ± 0.000517	367000 ± 33000					
CC(=O)N1CCC(Oc2cc3c(cc2Cl)C(=O)NC2(CCN(CCNC(=O)c4c(Cl)cccc4Cl)CC2)O3)CC1 [Compound 25]	72 ± 14	0.000233 ± 5e-05	533000 ± 67000	37%			more than 60%	
O=C1NC2(CCN(CCNC(=O)c3c(Cl)cccc3Cl)CC2)Oc2cc(OC3CCCC3)c(Cl)cc21 [Compound 22]	35 ± 7.6	0.000483 ± 0.0001	483000 ± 120000					
CN1CCC(Oc2cc3c(cc2Cl)C(=O)NC2(CCN(CCNC(=O)c4c(Cl)cccc4Cl)CC2)O3)CC1 [Compound 24]		0.0069 ± 0.00142	2.12e+06 ± 333000					
O=C1NC2(CCN(CCNC(=O)c3c(Cl)cccc3Cl)CC2)Oc2cc(OC3CCNCC3)c(Cl)cc21 [Compound 23]		0.0034 ± 0.00085	2.03e+06 ± 667000	completely washed away				
CC(=O)N1CCC(Oc2cc3c(cc2Cl)C(=O)CC2(CCN(CCNC(=O)c4c(Cl)cccc4Cl)CC2)O3)CC1 [Compound 26]	66 ± 20	0.00025 ± 8.3e-05	717000 ± 130000					
O=C1NC2(CCN(CCNC(=O)c3c(Cl)cccc3Cl)CC2)Oc2cc(NC3CCNCC3)c(Cl)cc21 [Compound 16]	2.2 ± 0.4	0.00773 ± 0.00153	267000 ± 33000					
CC(=O)N1CCC(Oc2cc3c(cc2Cl)CCC2(CCN(CCNC(=O)c4c(Cl)cccc4Cl)CC2)O3)CC1 [Compound 29]	52 ± 20	0.000317 ± 0.00012	1.58e+06 ± 333000					
Nc1cc2c(cc1Cl)C(=O)NC1(CCN(CCNC(=O)c3c(Cl)cccc3Cl)CC1)O2 [Compound 1]						145		
CC(C)(C)OC(=O)N1CCC(Nc2cc3c(cc2Cl)C(=O)NC2(CCN(CCNC(=O)c4c(Cl)cccc4Cl)CC2)O3)CC1 [Compound 19]	34 ± 9.7	0.0005 ± 0.00015	317000 ± 17000					
CNc1cc2c(cc1Cl)C(=O)NC1(CCN(CCNC(=O)c3c(Cl)cccc3Cl)CC1)O2 [Compound 2]	4.9 ± 1.1	0.00338 ± 0.000783	2.05e+06 ± 483000					approximately 30 fold
CN(CCCNc1cc2c(cc1Cl)C(=O)NC1(CCN(CCNC(=O)c3c(Cl)cccc3Cl)CC1)O2)C(=O)OC(C)(C)C [Compound 10]	26 ± 2.0	0.000633 ± 5e-05	550000 ± 50000					
O=C1NC2(CCN(CCNC(=O)c3c(Cl)cccc3Cl)CC2)Oc2cc(NC3CCCC3)c(Cl)cc21 [Compound 6]	21 ± 1.4	0.0008 ± 5e-05	1.68e+06 ± 583000					
O=C1NC2(CCN(CCNC(=O)c3c(Cl)cccc3Cl)CC2)Oc2cc(N3CCOCC3)c(Cl)cc21 [Compound 11]	16 ± 3.3	0.00107 ± 0.000233	667000 ± 100000					
O=C1NC2(CCN(CCNC(=O)c3c(Cl)cccc3Cl)CC2)Oc2cc(N3CCNCC3)c(Cl)cc21 [Compound 12]	2.9 ± 0.2	0.00583 ± 0.000433	633000 ± 67000					
CN(C)c1cc2c(cc1Cl)C(=O)NC1(CCN(CCNC(=O)c3c(Cl)cccc3Cl)CC1)O2 [Compound 3]	6.6 ± 0.9	0.00252 ± 0.000333	2.63e+06 ± 800000					approximately 30 fold
CN1CCN(c2cc3c(cc2Cl)C(=O)NC2(CCN(CCNC(=O)c4c(Cl)cccc4Cl)CC2)O3)CC1 [Compound 13]	11 ± 0.5	0.00148 ± 6.7e-05	450000 ± 67000					
CC(=O)Nc1cc2c(cc1Cl)C(=O)NC1(CCN(CCNC(=O)c3c(Cl)cccc3Cl)CC1)O2 [Compound 4]	2.6 ± 0.7	0.00643 ± 0.00178	200000 ± 100000					
CC(=O)N1CCC(Oc2cc3c(cc2Cl)C(O)CC2(CCN(CCNC(=O)c4c(Cl)cccc4Cl)CC2)O3)CC1 (centres unmarked) [Compound 27]	79 ± 20	0.000217 ± 5e-05	900000 ± 250000					
O=C1NC2(CCN(CCNC(=O)c3c(Cl)cccc3Cl)CC2)Oc2cc(NC3CCOCC3)c(Cl)cc21 [Compound 15]	10 ± 0.7	0.00167 ± 0.00012	550000 ± 130000					
CC(C)(C)OC(=O)N1CCN(c2cc3c(cc2Cl)C(=O)NC2(CCN(CCNC(=O)c4c(Cl)cccc4Cl)CC2)O3)CC1 [Compound 14]	38 ± 14	0.00045 ± 0.000167	333000 ± 17000					
CNCCCNc1cc2c(cc1Cl)C(=O)NC1(CCN(CCNC(=O)c3c(Cl)cccc3Cl)CC1)O2 [Compound 8]	3.4 ± 0.6	0.00493 ± 0.000833	183000 ± 67000					
COCNc1cc2c(cc1Cl)C(=O)NC1(CCN(CCNC(=O)c3c(Cl)cccc3Cl)CC1)O2 [Compound 5]	5.4 ± 0.7	0.00308 ± 0.000383	600000 ± 100000					
NC(=O)C1CN(CCCCC(c2ccc(F)cc2)c2ccc(F)cc2)CCN1CC(=O)Nc1c(Cl)cc(N)cc1Cl (centres unmarked) [Draflazine]					88			
